Experiments:
[1] = biological target: T1, full-length MALT1 protein His-MALT1(1-824) (Homo sapiens, UniProt Q9UDY8); test: MALT1 protease assay, Assay 1 (2 nM MALT1, Ac-LRSR-AMC substrate); type: biochemical; settings: 2 nM MALT1, 50 μM Ac-LRSR-AMC, 2 h pre-incubation, 8 hr incubation at RT
T1 construct: full-length MALT1 protein His-MALT1(1-824); His (N); made in house; host or cells: baculovirus-infected insect cells
T1 sequence (Q9UDY8 1-824): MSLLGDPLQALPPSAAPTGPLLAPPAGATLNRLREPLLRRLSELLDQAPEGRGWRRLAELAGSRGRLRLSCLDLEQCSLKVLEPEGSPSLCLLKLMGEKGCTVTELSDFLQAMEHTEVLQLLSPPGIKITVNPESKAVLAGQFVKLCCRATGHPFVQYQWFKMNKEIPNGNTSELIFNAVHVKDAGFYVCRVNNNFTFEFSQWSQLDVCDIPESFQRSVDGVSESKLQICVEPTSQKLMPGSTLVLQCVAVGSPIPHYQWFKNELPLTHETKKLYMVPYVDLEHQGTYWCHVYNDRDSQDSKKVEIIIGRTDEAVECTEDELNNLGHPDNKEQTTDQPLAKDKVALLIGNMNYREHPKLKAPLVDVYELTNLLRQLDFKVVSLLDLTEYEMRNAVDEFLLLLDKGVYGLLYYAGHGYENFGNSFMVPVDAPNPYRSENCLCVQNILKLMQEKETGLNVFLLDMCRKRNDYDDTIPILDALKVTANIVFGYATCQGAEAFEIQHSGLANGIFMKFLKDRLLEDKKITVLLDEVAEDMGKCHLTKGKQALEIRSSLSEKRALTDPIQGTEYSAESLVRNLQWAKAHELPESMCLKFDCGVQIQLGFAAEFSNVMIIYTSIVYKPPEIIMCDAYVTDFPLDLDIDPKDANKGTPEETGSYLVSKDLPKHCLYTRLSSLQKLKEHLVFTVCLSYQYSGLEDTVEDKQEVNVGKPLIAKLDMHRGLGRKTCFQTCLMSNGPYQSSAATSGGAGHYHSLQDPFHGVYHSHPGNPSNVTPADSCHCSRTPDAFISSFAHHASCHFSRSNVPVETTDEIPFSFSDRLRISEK
Outline: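 Compounds (0.1% DMSO final) sat 2 h at RT with insect-cell-expressed His-MALT1(1-824), in 50 mM Tris pH 7.5, 600 mM sodium citrate, 1 mM DTT, 1 mM EDTA, 0.05% BSA. Cleavage of 50 μM Ac-LRSR-AMC (Km ~100 μM) ran 8 h at RT, read as AMC fluorescence. IC50 and Hill coefficient fitted to % remaining activity.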

[2] = system: IL10 secretion in OCI-LY10 cells; test: Human IL10 secretion assay, Assay 1 (HTRF); type: cell-based; settings: 24 h incubation, read-out: IL-10 Secretion IC50 [nM] Assay 1
Protocol: IL10 is one of the cytokines that are regulated via activation of NF-kB signaling. For example, in ABC-DLBCL cell lines, the activated NF-kB signaling leads to increased IL10 secretion. Inhibition of NF-kB signaling has been shown leading to decreased IL10 secretion.
Assay 1: OCI-LY10 cells were seeded in IMEM supplemented with 20% fetal bovine serum at 3×10^5 cells per well in 96-well round bottom plates (Corning 3799, Corning), treated with 100 nL of 3-fold serial compound dilutions, starting at 10 mM. The final vehicle concentration was 0.1% DMSO in all wells. After 24 h incubation, the cells were transferred to 96-PCR plates (Axygen: PCR-96-FLT-C) and centrifuged, then 16 μL of cell culture media was transferred to HTRF plates and IL10 levels were measured using human IL-10 Assay Kits (Cisbio) using HTRF format. The signals were transformed to percentage of remaining activity by using the high control (HC, median of signal from wells containing cells treated with DMSO) and low control (LC, median of signal from wells with no cells). IC50 values (nM) were determined using 4-parametric curve-fitting and Hill coefficient obtained using Graph Pad Prism (Graph Pad software, Inc, USA) with non-linear regression analysis.

SMILES | IC50 [1] [nM] | IC50 [2] [nM]
CC1(C)CC(C(=O)Nc2cnc(-n3cccn3)c(Cl)c2)c2cnc3cc(Cl)nn3c21 (single isomer, unassigned) [Example 13, 2-chloro-N-(5-chloro-6-(1H-pyrazol-1-yl)pyridin-3-yl)-8,8-dimethyl-7,8-dihydro-6H-cyclopenta[e]pyrazolo[1,5-a]pyrimidine-6-carboxamide] | 10 to 100 | 100 to 1000
CC1(C)CC(C(=O)Nc2cnc(-n3nccn3)c(Cl)c2)c2cnc3cc(F)nn3c21 (single isomer, unassigned) [Example 33, N-(5-chloro-6-(2H-1,2,3-triazol-2-yl)pyridin-3-yl)-2-fluoro-8,8-dimethyl-7,8-dihydro-6H-cyclopenta[e]pyrazolo[1,5-a]pyrimidine-6-carboxamide] | < 10 | 10 to 100
CC1(C)CCC(C(=O)Nc2cnc(-n3nccn3)c(Cl)c2)c2cnc3cc(Cl)nn3c21 (single isomer, unassigned) [Example 9, 2-chloro-N-(5-chloro-6-(2H-1,2,3-triazol-2-yl)pyridin-3-yl)-9,9-dimethyl-6,7,8,9-tetrahydropyrazolo[1,5-a]quinazoline-6-carboxamide] | 10 to 100 | 100 to 1000
CC1(C)CC(C(=O)Nc2cnc(-n3ncc(CO)n3)c(Cl)c2)c2cnc3cc(Cl)nn3c21 (single isomer, unassigned) [Example 31, 2-chloro-N-(5-chloro-6-(4-(hydroxymethyl)-2H-1,2,3-triazol-2-yl)pyridin-3-yl)-8,8-dimethyl-7,8-dihydro-6H-cyclopenta[e]pyrazolo[1,5-a]pyrimidine-6-carboxamide] | < 10 | 100 to 1000
CCc1cc2ncc3c(n2n1)C(C)(C)CC3C(=O)Nc1cnc(-n2nccn2)c(Cl)c1 (single isomer, unassigned) [Example 21, N-(5-chloro-6-(2H-1,2,3-triazol-2-yl)pyridin-3-yl)-2-ethyl-8,8-dimethyl-7,8-dihydro-6H-cyclopenta[e]pyrazolo[1,5-a]pyrimidine-6-carboxamide] | 10 to 100 | ≥ 1000
CC1(C)CC(C(=O)Nc2cnc(-n3nccn3)c(Cl)c2)c2cnc3cc(C#N)nn3c21 (single isomer, unassigned) [Example 4, N-(5-chloro-6-(2H-1,2,3-triazol-2-yl)pyridin-3-yl)-2-cyano-8,8-dimethyl-7,8-dihydro-6H-cyclopenta[e]pyrazolo[1,5-a]pyrimidine-6-carboxamide] | 10 to 100 | 100 to 1000
Cn1cnc(-c2ncc(NC(=O)C3CC(C)(C)c4c3cnc3cc(Cl)nn43)cc2Cl)c1 (single isomer, unassigned) [Example 35, 2-chloro-N-(5-chloro-6-(1-methyl-1H-imidazol-4-yl)pyridin-3-yl)-8,8-dimethyl-7,8-dihydro-6H-cyclopenta[e]pyrazolo[1,5-a]pyrimidine-6-carboxamide] | 10 to 100 | ≥ 1000
C[C@]1(C(F)(F)F)C[C@@H](C(=O)Nc2cnc(-n3nccn3)c(Cl)c2)c2cnc3cc(Cl)nn3c21 (single isomer, unassigned) [Example 37, 2-chloro-N-(5-chloro-6-(2H-1,2,3-triazol-2-yl)pyridin-3-yl)-8-methyl-8-(trifluoromethyl)-7,8-dihydro-6H-cyclopenta[e]pyrazolo[1,5-a]pyrimidine-6-carboxamide] | 10 to 100 | ≥ 1000
CC1(C)CC(C(=O)Nc2cnc(-n3nccn3)c(Cl)c2)c2cnc3cc(Cl)nn3c21 (single isomer, unassigned) [Example 2, 2-chloro-N-(5-chloro-6-(2H-1,2,3-triazol-2-yl)pyridin-3-yl)-8,8-dimethyl-7,8-dihydro-6H-cyclopenta[e]pyrazolo[1,5-a]pyrimidine-6-carboxamide] | < 10 | 100 to 1000

From patent US12667572B2, “Tricyclic compounds useful in the treatment of cancer, autoimmune and inflammatory disorders” (SCHRÖDINGER, INC., priority 2021, dated 2026)
